{"source": "ChEMBL document CHEMBL6103592", "about": "“Discovery of novel thiazole-pleuromutilin derivatives with potent antibacterial activity” (Eur J Med Chem, 2025)", "key": {"Staphylococcus aureus [1]": {"system": "Staphylococcus aureus", "assay": "(§1) Antibacterial efficacy against methicillin-resistant Staphylococcus aureus ATCC 43300 infected in cyclophosphamide-induced neutropenic systemic infection Kunming mouse model assessed as reduction in bacterial load in kidney at 20 mg/kg, iv pretreated with cyclophosphamide for 1 hr followed by compound addition and measured after 5 days", "type": "functional, organism-based", "conditions": "time 5.0 day"}, "Staphylococcus aureus [2]": {"system": "Staphylococcus aureus", "assay": "Antibacterial activity against methicillin-resistant Staphylococcus aureus ATCC 43300 assessed as post antibiotic effect at 4 times MIC measured after 1 hr", "type": "functional"}, "Staphylococcus aureus [3]": {"system": "Staphylococcus aureus", "assay": "Antibacterial activity against methicillin resistant Staphylococcus aureus", "type": "functional"}, "Enterococcus faecalis": {"system": "Enterococcus faecalis", "assay": "Antibacterial activity against Enterococcus faecalis assessed as inhibition of visible bacterial growth incubated for 24 hrs by CLSI based broth microdilution method", "type": "functional"}, "Staphylococcus aureus [4]": {"system": "Staphylococcus aureus", "assay": "Antibacterial activity against methicillin-resistant Staphylococcus aureus ATCC 43300 assessed as post antibiotic effect at 2 times MIC measured after 1 hr", "type": "functional"}, "Staphylococcus aureus [5]": {"system": "Staphylococcus aureus", "assay": "Drug resistance, ratio of MIC for methicillin-resistant Staphylococcus aureus ATCC 43300 after 21 passages to MIC for methicillin-resistant Staphylococcus aureus ATCC 43300 during first exposure", "type": "functional"}, "Staphylococcus aureus [6]": {"system": "Staphylococcus aureus", "assay": "Antibacterial activity against methicillin-resistant Staphylococcus aureus ATCC 43300 assessed as post antibiotic effect at 1 times MIC measured after 1 hr", "type": "functional"}, "Staphylococcus aureus [7]": {"system": "Staphylococcus aureus", "assay": "Antibacterial activity against methicillin-resistant Staphylococcus aureus ATCC 43300 assessed as reduction in bacterial proteins level at 0.5 to 2 microg/ml measured for 4 hrs", "type": "functional, organism-based", "conditions": "dose 0.5-2 µg/ml"}, "Staphylococcus aureus [8]": {"system": "Staphylococcus aureus", "assay": "as §1, with “alveolar epithelial cell necrosis” for “reduction in bacterial load in kidney”, “days by light microscopic analysis” for “days”", "type": "functional, organism-based", "conditions": "time 5.0 day"}, "Staphylococcus aureus [9]": {"system": "Staphylococcus aureus", "assay": "Antibacterial activity against methicillin-resistant Staphylococcus aureus ATCC 43300 assessed as post antibiotic effect at 8 times MIC measured after 1 hr", "type": "functional"}, "Staphylococcus aureus [10]": {"system": "Staphylococcus aureus", "assay": "Antibacterial activity against methicillin-resistant Staphylococcus aureus ATCC 43300 assessed as inhibition of visible bacterial growth incubated for 24 hrs by CLSI based broth microdilution method", "type": "functional"}, "Streptococcus agalactiae": {"system": "Streptococcus agalactiae", "assay": "Antibacterial activity against Streptococcus agalactiae assessed as inhibition of visible bacterial growth incubated for 24 hrs by CLSI based broth microdilution method", "type": "functional"}, "Mycoplasma": {"system": "Mycoplasma", "assay": "Antibacterial activity against Mycoplasma F3 assessed as inhibition of visible bacterial growth incubated for 24 hrs by CLSI based broth microdilution method", "type": "functional"}, "Staphylococcus aureus [11]": {"system": "Staphylococcus aureus", "assay": "Bactericidal activity against methicillin-resistant Staphylococcus aureus ATCC 43300 assessed as increase in colony forming unit count at 1 times MIC incubated after 8 hrs by time-kill assay", "type": "functional, organism-based"}, "Staphylococcus aureus [12]": {"system": "Staphylococcus aureus", "assay": "Bactericidal activity against methicillin-resistant Staphylococcus aureus ATCC 43300 at 1 times MIC incubated upto 24 hrs by time-kill assay", "type": "functional, organism-based"}, "Escherichia coli": {"system": "Escherichia coli", "assay": "Antibacterial activity against Escherichia coli ATCC 25922 assessed as inhibition of visible bacterial growth incubated for 24 hrs by CLSI based broth microdilution method", "type": "functional"}, "Staphylococcus aureus [13]": {"system": "Staphylococcus aureus", "assay": "Antibacterial activity against Staphylococcus aureus ATCC 25923 assessed as inhibition of visible bacterial growth incubated for 24 hrs by CLSI based broth microdilution method", "type": "functional"}, "Staphylococcus aureus [14]": {"system": "Staphylococcus aureus", "assay": "as §1, with “liver” for “kidney”", "type": "functional", "conditions": "time 5 day"}, "[15]": {"assay": "Cytotoxicity against human HEK293T cells assessed as survival rate incubated for 24 hrs by CCK-8 assay", "type": "toxicity, cell-based, HEK-293T"}, "HepG2 [16]": {"system": "HepG2", "assay": "Cytotoxicity against human HepG2 cells assessed as survival rate incubated for 24 hrs by CCK-8 assay", "type": "functional, cell-based", "conditions": "HepG2, 24 h"}, "Staphylococcus aureus [17]": {"system": "Staphylococcus aureus", "assay": "as §1, with “lung” for “kidney”", "type": "functional", "conditions": "time 5 day"}, "[18]": {"assay": "Cytotoxicity against human HEK293T cells assessed as survival rate at 200 micromol/L incubated for 24 hrs by CCK-8 assay relative to control", "type": "toxicity, cell-based, HEK-293T", "conditions": "dose 200 µmol/L, read-out: Survival"}, "HepG2 [19]": {"system": "HepG2", "assay": "Cytotoxicity against human HepG2 cells assessed as survival rate at 200 micromol/L incubated for 24 hrs by CCK-8 assay relative to control", "type": "functional", "conditions": "HepG2, 24 h, dose 200 µmol/L, read-out: Survival"}}, "note": "Active and inactive are the calls of the source. The calls are words filed in the database; no cut-off is given here."}
{"compound": "C=C[C@]1(C)C[C@@H](OC(=O)CSCCN(CC)CC)[C@]2(C)[C@H](C)CC[C@]3(CCC(=O)[C@H]32)[C@@H](C)[C@@H]1O", "note": "[TIAMULIN]", "values": [{"measurement": "Activity", "setting": "Staphylococcus aureus [1]", "value": "inactive"}, {"measurement": "PAE", "setting": "Staphylococcus aureus [2]", "value": 1.54, "unit": "h"}, {"measurement": "MIC", "setting": "Staphylococcus aureus [3]", "value": 0.5, "unit": "µg/mL"}, {"measurement": "MIC", "setting": "Enterococcus faecalis", "value": "> 32", "unit": "µg/mL"}, {"measurement": "PAE", "setting": "Staphylococcus aureus [4]", "value": 0.91, "unit": "h"}, {"measurement": "Ratio", "setting": "Staphylococcus aureus [5]", "value": 64}, {"measurement": "PAE", "setting": "Staphylococcus aureus [6]", "value": 0.42, "unit": "h"}, {"measurement": "Activity", "setting": "Staphylococcus aureus [7]", "value": "Active"}, {"measurement": "Activity", "setting": "Staphylococcus aureus [8]", "value": "Active"}, {"measurement": "PAE", "setting": "Staphylococcus aureus [9]", "value": 2.2, "unit": "h"}, {"measurement": "MIC", "setting": "Staphylococcus aureus [10]", "value": 0.25, "unit": "µg/mL"}, {"measurement": "MIC", "setting": "Streptococcus agalactiae", "value": 0.125, "unit": "µg/mL"}, {"measurement": "MIC", "setting": "Mycoplasma", "value": 0.008, "unit": "µg/mL"}, {"measurement": "Activity", "setting": "Staphylococcus aureus [11]", "value": "Active"}, {"measurement": "Activity", "setting": "Staphylococcus aureus [12]", "value": "Active"}, {"measurement": "MIC", "setting": "Escherichia coli", "value": "> 32", "unit": "µg/mL"}, {"measurement": "MIC", "setting": "Staphylococcus aureus [13]", "value": 0.25, "unit": "µg/mL"}]}
{"compound": "C=C[C@]1(C)C[C@@H](OC(=O)CSC(C)(C)CNC(=O)[C@H](N)C(C)C)[C@]2(C)[C@H](C)CC[C@]3(CCC(=O)[C@H]32)[C@@H](C)[C@@H]1O", "note": "[VALNEMULIN]", "values": [{"measurement": "Activity", "setting": "Staphylococcus aureus [1]", "value": "inactive"}, {"measurement": "Activity", "setting": "Staphylococcus aureus [14]", "value": 0.71, "unit": "log10CFU"}, {"measurement": "IC50 at 24 h", "setting": "[15]", "value": 52, "unit": "µM"}, {"measurement": "Activity", "setting": "Staphylococcus aureus [8]", "value": "inactive"}, {"measurement": "IC50", "setting": "HepG2 [16]", "value": 102, "unit": "µM"}, {"measurement": "Activity", "setting": "Staphylococcus aureus [17]", "value": 0.98, "unit": "log10CFU"}, {"measurement": "viability at 24 h, 200 µM", "setting": "[18]", "value": 16, "unit": "%"}, {"measurement": "viability at 200 µM", "setting": "HepG2 [19]", "value": 12, "unit": "%"}]}
